“Also recorded” adds a separate entry of the source. Blank lines part the entries; values can stand above or below the compound they belong to.
What was measured:
[1] = system: carnitine palmitoyltransferase II (CPT II) deficient fibroblasts; test: Tandem mass spectrometry assay of labeled fatty acid oxidation; type: cell-based, human; conditions: for accumulation of labeled acylcarnitine of the precursor: m/z417 for D3-C16, m/z319 for D3-C9
Protocol: (§1) Fibroblasts taken from the deceased sibling and amniocytes taken from the fetus were both evaluated for fatty acid metabolism of n-heptanoic acid (C7) using a tandem mass spectrometry assay previously reported. (Yang, et al. 1998. “Identification of four novel mutations in patients with carnitine palmitoyltransferase II (CPT II) deficiency,” Mol Genet Metab 64:229-236). […] Each cell line was incubated separately with 7-^2H3-heptanoate (D3-C7), 8-^2H3-octanoate (D3-C8), 9-^2H3-nonanoate (D3-C9), and 16-^2H3-palmitate (D3-C16).
(§2) The normal cell line and eleven abnormal cell lines were analyzed in groups of three. For quantitative purposes, labeled internal standards were included in each analysis and are designated as “IS” on the first profile in each group. The mass numbers for these standards are: m/z420 (^2H6-palmitate-C16), m/z308 (^2H6-octanoate-C8), m/z269 (^2H9-isovaleric-C5) , and m/z237 (^2H5-propionate-C3), wherein m/z is the mass:charge ratio.
(§3) This relative ammount of m/z235 (^2H3-propionate-C3) is compared to the level of the internal standards at m/z269 (^2H9-isovaleric-C5) and m/z237 (^2H5-propionate-C3).

[2] = system: electron transfer flavoprotein QO dehydrogenase-severe (ETF-DH severe) deficient fibroblasts; test: as above; type: cell-based, human
Protocol: as §1, §2, §3

[3] = system: VLCAD-C (cardiac form of very-long-chain acyl-CoA dehydrogenase) deficient fibroblasts; test: as above; type: cell-based, human
Protocol: as §1, §2, §3

[4] = system: medium-chain acyl-CoA dehydrogenase (MCAD) deficient fibroblasts; test: as above; type: cell-based, human; conditions: for accumulation of labeled acylcarnitine: C8 m/z305.3 from D3-C16, m/z305 for D3-C8, m/z291 heptanoylcarnitine for D3-C7
Protocol: as §1, §2, §3

[5] = system: short-chain acyl-CoA dehydrogenase (SCAD) deficient fibroblasts; test: as above; type: cell-based, human
Protocol: as §1, §2, §3

[6] = system: electron transfer flavoprotein QO dehydrogenase-mild (ETF-DH mild) deficient fibroblasts; test: as above; type: cell-based, human
Protocol: as §1, §2, §3

[7] = system: long-chain L-3-hydroxy-acyl-CoA dehydrogenase (LCHAD) deficient fibroblasts; test: as above; type: cell-based, human
Protocol: as §1, §2, §3

[8] = system: mitochondrial trifunctional protein (TRIFUNCTIONAL) deficient fibroblasts; test: as above; type: cell-based, human
Protocol: as §1, §2, §3

[9] = system: VLCAD-H (hypoglycemic form of very-long-chain acyl-CoA dehydrogenase) deficient fibroblasts; test: as above; type: cell-based, human
Protocol: as §1, §2, §3

[10] = system: carnitine palmitoyltransferase I (CPT I) deficient fibroblasts; test: as above; type: cell-based, human
Protocol: as §1, §2, §3

[11] = system: fibroblasts with severe carnitine/acylcarnitine translocase deficiency (TRANSLOCASE); test: Tandem mass spectrometry assay of labeled fatty acid oxidation in cultured cells; type: cell-based, human; conditions: translocase-deficient fibroblasts; for accumulation of labeled acylcarnitine of the precursor: m/z417 for D3-C16, m/z305 for D3-C8, m/z319 for D3-C9
Protocol: as §1, §2, §3

normal fibroblasts = test: Tandem mass spectrometry assay of labeled fatty acid oxidation; type: cell-based, human
Source text: Fibroblasts taken from the deceased sibling and amniocytes taken from the fetus were both evaluated for fatty acid metabolism of n-heptanoic acid (C7) using a tandem mass spectrometry assay previously reported. (Yang, et al. 1998. “Identification of four novel mutations in patients with carnitine palmitoyltransferase II (CPT II) deficiency,” Mol Genet Metab 64:229-236). The mass spectrometry results are presented for palmitate in FIG. 3A and triheptanoin in FIG. 3B for the fibroblasts taken from the deceased sibling, and for palmitate in FIG. 4A and triheptanoin in FIG. 4B for the amniocytes taken from the fetus. […]
The normal cell line and eleven abnormal cell lines were analyzed in groups of three. For quantitative purposes, labeled internal standards were included in each analysis and are designated as “IS” on the first profile in each group. […]

[12] = system: amniocytes from a fetus with severe translocase deficiency; test: Tandem mass spectrometry assay of fatty acid oxidation in amniocytes; type: cell-based, human; conditions: translocase-deficient amniocytes
Source text: Because a sibling had died at the age of four days from severe translocase deficiency, amniocytes obtained from a fetus were examined for competency in fatty acid metabolism. […] Fibroblasts taken from the deceased sibling and amniocytes taken from the fetus were both evaluated for fatty acid metabolism of n-heptanoic acid (C7) using a tandem mass spectrometry assay previously reported. (Yang, et al. 1998. “Identification of four novel mutations in patients with carnitine palmitoyltransferase II (CPT II) deficiency,” Mol Genet Metab 64:229-236). […]

fasting rats = conditions: rats fed the triglyceride; Anderson et al. 1975; cited from earlier work

accumulation of labeled acylcarnitine [4]: markedly increased
SMILES: [2H]C([2H])([2H])CCCCCC(=O)O [D3-C7, 7-^2H3-heptanoate]
relative amount of 2H3-propionate-C3 (m/z235) produced ([1]; compared to normal cells): either comparable to or in excess of the amount seen in normal cells | oxidation of the fatty acid (labeled acylcarnitine profile) [2]: no oxidation of labeled 7-^2H3-heptanoate was observed | relative amount of 2H3-propionate-C3 (m/z235) produced ([3]; compared to normal cells): either comparable to or in excess of the amount seen in normal cells | relative amount of 2H3-propionate-C3 (m/z235) produced ([5]; compared to normal cells): either comparable to or in excess of the amount seen in normal cells | oxidation of the fatty acid (labeled acylcarnitine profile) [6]: no oxidation of labeled 7-^2H3-heptanoate was observed | relative amount of 2H3-propionate-C3 (m/z235) produced ([7]; compared to normal cells): either comparable to or in excess of the amount seen in normal cells | relative amount of 2H3-propionate-C3 (m/z235) produced ([8]; compared to normal cells): either comparable to or in excess of the amount seen in normal cells | relative amount of 2H3-propionate-C3 (m/z235) produced ([9]; compared to normal cells): either comparable to or in excess of the amount seen in normal cells | relative amount of 2H3-propionate-C3 (m/z235) produced ([10]; compared to normal cells): either comparable to or in excess of the amount seen in normal cells | relative amount of 2H3-propionate-C3 (m/z235) produced ([11]; compared to normal cells): either comparable to or in excess of the amount seen in normal cells

accumulation of labeled acylcarnitine [4]: relative accumulation of m/z 305
SMILES: [2H]C([2H])([2H])CCCCCCC(=O)O [D3-C8, 8-^2H3-octanoate]
accumulation of labeled acylcarnitine of the precursor [11]: relative accumulation of m/z 305

accumulation of labeled acylcarnitine of the precursor [1]: an increase was observed at m/z319 | accumulation of labeled acylcarnitine of the precursor ([7]; m/z319 for D3-C9): an increase was observed at m/z319
SMILES: [2H]C([2H])([2H])CCCCCCCC(=O)O [D3-C9, 9-^2H3-nonanoate]
accumulation of labeled acylcarnitine of the precursor [11]: an increase was observed at m/z319

oxidation of the fatty acid (labeled acylcarnitine profile) [1]: no oxidation occurs | accumulation of labeled acylcarnitine [4]: marked accumulation | oxidation of the fatty acid (labeled acylcarnitine profile) [5]: oxidation stops at m/z249 | amount of labeled palmitoylcarnitine (m/z417) [10]: minimal amount | oxidation of the fatty acid (labeled acylcarnitine profile) [10]: virtually no oxidation occurs
SMILES: [2H]C([2H])([2H])CCCCCCCCCCCCCCC(=O)O [D3-C16, 16-^2H3-palmitate]
profile of labeled acylcarnitine intermediates (normal fibroblasts): from C16 down to and including C4 | accumulation of labeled acylcarnitine of the precursor [1]: large quantities of labeled palmitoylcarnitine | oxidation of the fatty acid (labeled acylcarnitine profile) [2]: abnormal profiles of labeled acylcarnitines | profile of labeled acylcarnitines [3]: abnormal profiles of labeled acylcarnitines | oxidation of the fatty acid (labeled acylcarnitine profile) [4]: oxidation clearly proceed down to the level of C8 | oxidation of the fatty acid (labeled acylcarnitine profile) [6]: abnormal profiles of labeled acylcarnitines | profile of labeled acylcarnitines [7]: abnormal profiles of labeled acylcarnitines | profile of labeled acylcarnitines [8]: abnormal profiles of labeled acylcarnitines | profile of labeled acylcarnitines [9]: abnormal profiles of labeled acylcarnitines | oxidation of the fatty acid (labeled acylcarnitine profile) [11]: no oxidation occurs | accumulation of labeled acylcarnitine of the precursor [11]: large quantities of labeled palmitoylcarnitine

oxidation of the fatty acid [12]: readily oxidized to propionyl-CoA
SMILES: CCCCCCC(=O)O [n-heptanoic acid]
oxidation of the fatty acid (labeled acylcarnitine profile) [11]: successful oxidation; also recorded: readily oxidized to propionyl-CoA

SMILES: CCCCCCCCCCC(=O)OCC(COC(=O)CCCCCCCCCC)OC(=O)CCCCCCCCCC [triundecanoin]
blood glucose levels during prolonged fasting (fasting rats): maintain nonfasting blood glucose levels during prolonged fasting
